These results are taken from patent US7022481B2, “Methods of using glucan synthase pathway reporter genes to screen for antifungal compounds” (Rosetta Inpharmatics LLC, priority 2002, dated 2006).

≈ marks a conversion by molar mass, not a printed value. Read-outs that look alike come from different tables or passages of the source.

Common to all, as to assay type: cell-based, S. cerevisiae
For assay [1], the system named is wild-type S288C strain. The assay is described as follows: microbe, parasite or virus in culture. Here is the method:
First, comprehensive gene expression profiles for S. cerevisiae grown in the presence of known inhibitors of glucan synthase were constructed. Enfumafungin and Ascosteroside were two known glucan synthase inhibitors used in the present invention. Prior to exposing the GRM to these two glucan synthase inhibitors, growth inhibition studies were performed on wild-type S288C strain in order to determine the appropriate concentrations for GRM profiling.

In assay [2] the test system is ABY12 strain. Description: growth inhibition (IC values) in the ABY12 strain. The source says: 3. The drug-like agents selected for the assay were the GS inhibitors Enfumafungin, Ascosteroside, and Dihydropapulacandin B; along with the Elongation Factor 2 (EF2) inhibitor Sordarin, to be used as a negative control. These four drugs were all added to the second column of each 96-well assay plate and serially diluted (1 to 2) into Casamino Acids media plus 2% DMSO in columns 3–12, so that column 2 of each plate will contain the highest concentration of each drug and column 12 will contain the lowest. The first column of each plate was used as a “no drug” control, containing only Casamino Acids media plus 2% DMSO. The concentrations for each drug that were added to the wells in column 2 are shown in Table VI (Maximum Concentration Tested) along with the rows of each plate they were added to (Table VI, Rows).
5. After the 24 hour incubation the 96-well assay plates were imaged in a Molecular Dynamics Fluorimager SI to measure the fluorescence from the GFP reporters. […] Additionally, none of the compounds tested induced increased fluorescence from the reporter for inhibition of sterol biosynthesis, HES1 (FIG. 20). […] Of note here is the fact that the highest concentrations tested were all substantially greater than the measured IC50's for these compounds in the ABY12 strain (Table VI). Therefore these strains are capable of reporting on inhibition of GS even at drug concentrations that inhibit cell growth. This is an important characteristic of this assay as the preferred method of high-throughput screening would be to perform the screens at one high concentration for every compound assayed. It has been previously shown that the HES1 reporter strain is capable of performing under such assay conditions in a 384-well formatted high-throughput screen of a combinatorial library (WO 00/58521, PCT published application).

The subject of assay [3] is gene reporters in the GRM (promoter-GFP fusions). Description: Genome Reporter Matrix (GRM) reporter gene expression profiling.
Source text: Genome Reporter Matrix™ (GRM) technology was used to generate the gene expression profiles that the glucan synthase inhibition treatments induced in the yeast S. cerevisiae. The GRM was used to generate comprehensive gene expression profiles in the yeast S. cerevisiae. The GRM used in the present invention was a matrix of units comprising living S. cerevisiae cells, the cells in each unit containing one S. cerevisiae reporter fusions (GRM construct) representative of essentially every known gene and hypothetical open reading frame (ORF) of S. cerevisiae. The GRM constructs used in the present invention comprised a promoter, 5′ upstream untranslated region and usually the first four amino acids from one of each hypothetical ORF fused to a gene encoding the green fluorescent protein (GFP).
Solutions of test compounds were added directly to the solid agar growth media plates prior to addition of S. cerevisiae strains. The individual strains comprising the GRM were maintained as independent colonies (and cultures) in a 96-well format, in medium selecting for the URA2-containing reporter plasmid. Prior to each experiment, fresh dilutions of the reporter-containing strains were inoculated and grown overnight at 30° C. A Hamilton MicroLab 4200, a multichannel gantry robot equipped with a custom pin tool device capable of dispensing 50 nanoliter volumes in a highly reproducible manner, was used to array the matrix of S. cerevisiae strains in a uniform manner onto solid agar growth media at a density of 1536 reporter strains per 110 cm^2 plate. Fifty nanoliters of S. cerevisiae liquid cultures arrayed onto solid medium by the Hamilton Microlab 4200 results in colony-to-colony signal reproducibility of less than 5% variation. Once arrayed, each plate was grown at 30° C. for 18 hours or at 25° C. for 24 hours.
The level of fluorescence expressed from each reporter gene fusion was determined using a Molecular Dynamics Fluorimager SI. Custom image analysis software was used to quantitate the fluorescence of each colony in the images.
Assay [4] concerns lawn of the YOL113W (SKM1) reporter strain (ABY12). Description: solid plate halo assay, growth of lawn. The conditions noted are these: 20 ul of 200 μg/ml (low) and 20 ul of 1 mg/ml (high) on paper disc, 23 hour incubation. On the procedure: (§1) This assay is meant to mimic assays where natural product producing strains would be either plated onto a lawn of our ABY12 reporter carrying strains, or an agar overlay containing the ABY12 reporter strain would be placed over a plate containing natural product producing strains, the purpose being identifying strains that are producing molecules that inhibit GS.
(§2) 1. The YOL113W (SKM1) reporter transformed into wild-type S. Cerevisiae strain ABY12 was grown on a solid Casamino Acids media plate.
(§3) 2. The culture from the solid media plate was used to inoculate a 50 ml liquid culture in Casamino Acids media. This liquid culture was grown overnight at 30 degrees Celsius. The culture was grown to a final OD600=10.5. This culture was then diluted in Casamino Acids media to an OD600=1, or 1×10^7 cells per milliliter. Five-hundred microliters of cell culture (5×10^6 cells) was then spread evenly over the surface of each of two 100 mm solid agar-Casamino-acids-media plates to form a lawn of the YOL113W (SKM1) reporter strain on each plate.
(§4) 3. Two 6 mm diameter blank paper discs (BECTON DICKINSON® #231039) were placed on top of the agar surface of each plate evenly spaced apart. […]
(§5) 4. After a 23 hour incubation the assay plates were imaged in a Molecular Dynamics Fluorimager SI to measure the fluorescence from the GFP reporters. […]

Assay [5] relates to YOL113W (SKM1) reporter. Description: solid plate halo assay, reporter fluorescence. To be noted: 20 ul of 200 μg/ml and 1 mg/ml on paper disc, 23 hour incubation. On the procedure:
as §1, §2, §3, §4, §5

Assay [6] deals with YOL113W (SKM1), YNR066C, YLR121C (YPS3), YKL161C, and YAR050W (FLO1) GFP reporters. Description: liquid high-throughput like 96-well GFP reporter assay, glucan synthase pathway reporters. The conditions noted are these: serial 1 to 2 dilutions, ~24 hours at 30 degrees Celsius, five GS reporters. Here is the method:
The five reporters selected were: YOL113W (SKM1), YNR066C, YLR121C (YPS3), YKL161C, and YAR050W (FLO1). Another reporter, YOR237W (HES1), was selected as a negative control.
1. Reporters transformed into wild-type S. Cerevisiae strain ABY12 were grown on solid Casamino Acids media plates.
2. The cultures from the solid media plates were used to inoculate 50 ml liquid cultures in Casamino Acids media. These liquid cultures were grown overnight at 30 degrees Celsius. The cultures were all grown to a final OD600˜=8 (Table V).
These cultures were then diluted in Casamino Acids media to and OD600=2.
3. The drug-like agents selected for the assay were the GS inhibitors Enfumafungin, Ascosteroside, and Dihydropapulacandin B; along with the Elongation Factor 2 (EF2) inhibitor Sordarin, to be used as a negative control. […]
5. After the 24 hour incubation the 96-well assay plates were imaged in a Molecular Dynamics Fluorimager SI to measure the fluorescence from the GFP reporters. […] Additionally, none of the compounds tested induced increased fluorescence from the reporter for inhibition of sterol biosynthesis, HES1 (FIG. 20). […] Of note here is the fact that the highest concentrations tested were all substantially greater than the measured IC50's for these compounds in the ABY12 strain (Table VI). […]

[7] abbreviates: growth inhibition, wild-type S288C strain.
The mark [8] stands for this setting: Saccharomyces cerevisiae, read-out: IC50.

As for `C=C(CC[C@H](C)[C@H]1C[C@@H](O)[C@@]2(C(=O)O)C3=C(CC[C@]12C)[C@@]1(C)CC[C@H](O[C@H]2O[C@H](CO)[C@@H](OC)[C@H](O)[C@H]2O)C(=C)[C@@H]1CC3)C(C)C` [Ascosteroside], in assay [1] (setting [7]), the IC25 was 6.3 µg/mL (≈ 9.74 µM) and the IC50 is 19 µg/mL (≈ 29.4 µM). Further, in assay [1] (wild-type S288C strain), the “effectiveness in growth inhibition assays” value is recorded as “effective”. For the same molecule, in assay [2], the IC25 was determined as 6.3 µg/mL (≈ 9.74 µM) and the IC50 is 19 µg/mL (≈ 29.4 µM). Moreover, in assay [3] (5 μg/ml in 1% DMSO, FIG. 9), the “expression response of reporter YKL161C” value was “highly up-regulated”. Moreover, the “number of gene reporters significantly up- or down-regulated” value in assay [3] (lowest concentration (5.0 μg/ml), p<=0.01, of roughly 6,000 gene reporters in the GRM) is given as 318.

Take `CC(=O)O[C@@H]1C[C@]23C4=CC[C@@]5(C)[C@H](C(=O)O)[C@@](C)([C@H](C)C(C)C)CC[C@]5(C)[C@H]4CC[C@H]2[C@@](C)(COC3O)[C@H]1O[C@@H]1O[C@H](CO)[C@@H](O)[C@H](O)[C@H]1O` (stereo partly shown) [Enfumafungin]: the IC50 in assay [1] (Saccharomyces cerevisiae) and in assay [2] (setting [8]) was 0.69 µg/mL (≈ 0.973 µM) in each case. The IC25 in assay [1] (setting [7]) and in assay [2] was 0.54 µg/mL (≈ 0.762 µM) in each case. Besides, the IC75 in assay [1] (setting [7]) and in assay [2] was 0.9 µg/mL (≈ 1.27 µM) throughout. For the same molecule, the “effectiveness in growth inhibition assays” value in assay [1] (wild-type S288C strain) is given as “effective”. In addition, the “growth inhibition of the GRM” value in assay [3] (0.60 μg/ml and 0.75 μg/ml) is reported as “too much growth inhibition”. Moreover, in assay [4], the “growth of the lawn around paper disc (halo)” value is listed as “inhibited the growth of the lawn”. For the same molecule, the “induction of the YOL113W (SKM1) reporter (fluorescence at edge of halo)” value in assay [5] is reported as “significantly induced”; in assay [5] (listed as enfumafungin) it was “upregulating SKM1 reporter”.

Consider `CO[C@H]1[C@@H](O)[C@H](O)[C@H](OC[C@@]23C[C@@H]4[C@H](C)CC[C@H]4[C@@]4(C=O)CC2C=C(C(C)C)[C@@]34C(=O)O)O[C@@H]1C` [Sordarin], for which, in assay [2], the IC25 was 1.1 µg/mL (≈ 2.23 µM) and the 75% effect concentration (IC75) was determined as 2.5 µg/mL (≈ 5.08 µM). Also, the IC50 in assay [2] (setting [8]) was found to be 1.5 µg/mL (≈ 3.05 µM). Moreover, the “fluorescence from the GFP reporters versus no drug controls” value in assay [6] was “None of the reporters, however, showed any increase in fluorescence”.

In assay [2], Dihydropapulacandin B gave an IC25 of 3.7 µg/mL, an IC50 of 4.4 µg/mL and an IC75 of 5.3 µg/mL.
